Laboratory results taken from patent US9796962B2, “Method for generating pancreatic hormone-producing cells” (Kyoto University, priority 2013, dated 2017).
Structures can show the parent of a compound that is named as a salt.

What was measured:
[1] = tested on: Pancreatic anlages from mice embryos E12.5, E14.5 and E16.5; experiment: Differentiation of fetal pancreatic anlages into insulin producing cells (insulin promoter GFP); format: cell-based; details: 10 mM with 4 factors
Experimental: Pancreatic anlages were obtained from mice embryos E12.5, E14.5 and E16.5 that express GFP on the downstream of the insulin promoter. Each pancreatic anlage was cultured in a suspension culture in Improved MEM Zinc Option medium containing 1% B-27 added with forskolin (10 μM), nicotinamide (10 mM), dexamethasone (10 μM), ALK5 inhibitor II (5 μM) and sodium cromoglicate (10 mM) for 4 days.
Further, expression of insulin and Neurog 3 in thus obtained cells were analyzed by PCR and confirmed that the expression of those genes was increased in the cells cultured with sodium cromoglicate (FIG. 7C).

[2] = tested on: iPS cell lines 418C1, 409B2 and 201B7; experiment: Differentiation of three iPS cell lines into insulin positive cells; format: cell-based, human; details: 10 mM in step 3 vs control; all three iPS cell lines; FIG. 2A
Source text: Three iPS cell lines, 418C1 and 409B2 (Okita K, et al, Nat Methods. 2011 8:409-412) and 201B7, all of which were generated from fibroblast cells, can be obtained from Center for iPS Cell Research and Application, Kyoto University. The iPS cell lines obtained from Kyoto University were differentiated into insulin positive cells by subjecting the cells to the same steps as those in Examples 1 and 2 with the exception that the concentration of sodium cromoglicate in the culture medium used in step 3 was 10 mM.

[3] = tested on: Human iPS cell line 201B7; experiment: Differentiation of 201B7 with 8 days step 3: marker gene PCR, immune staining, insulin amount; format: cell-based
Experimental: Human iPS cell line 201B7 was used. The cells were differentiated into insulin producing cells by the following steps. The colonies of the iPS cell line was grown to 80-90% confluence in the culture plate and dissociated from the dish by using CTK solution (Reprocell). The dissociated colonies were then divided into single cells using Accutase™ and seeded in 24 well plates (Greiner) at 2.0×10^5/well.
The cells were cultured in RPMI medium containing 1% B-27 added with activin A (100 ng/ml), CHIR99021 (1 μM) and Y-27632 (10 μM) for 2 days. Then, the cells were further cultured in RPMI medium containing 1% B-27 added with activin A (100 ng/ml) and CHIR99021 (1 μM) for more 3 days (Day 5). During this period, the medium was changed with the same fresh medium on the third (Day 3) and the fourth days (Day 4).
The cells obtained in Step 1 were cultured in improved MEM Zinc Option medium containing 1% B-27 added with dorsomorphin (1 μM), retinoic acid (2 μM), and SB431542 (10 μM) for 6 days (Day 11). During this period, the medium was changed with the same fresh medium every two days.
The cells obtained in Step 2 were cultured in improved MEM Zinc Option medium containing 1% B-27 added with forskolin (10 μM), nicotinamide (10 mM), dexamethasone (10 μM), ALK5 inhibitor II ((2-(3-(6-Methylpyridin-2-yl)-1H-pyrazol-4-yl)-1,5-naphthyridine)) (5 μM) and sodium cromoglicate (10 mM) for more 8 days (Day 19). During this period, the medium was changed with the same fresh medium every four days.
The cells at each step were collected, i.e. on Day 0, Day 5, Day 11 and Day 19, and the expressions of marker genes were determined by PCR (FIG. 5B). In the group where cells were cultured in the presence of sodium cromoglicate in step 3, the expression of NGN3 and GHRE (Ghrelin) were confirmed. The expression of SST (somatostatin) in the group where cells were cultured in the presence of sodium cromoglicate in step 3 was higher than that in the group where cells were cultured in the absence of sodium cromoglicate.
Further, the cells were subjected to immune staining and confirmed the production of proteins corresponding to the marker genes (FIG. 5C). The amount of insulin produced by the cells obtained by culturing the cells in the presence of sodium cromoglicate in step 3 and that produced by the cells obtained by culturing in the absence of sodium cromoglicate were compared, and the amount of insulin produced by the cells obtained with sodium cromoglicate was higher than that produced by the cells obtained without sodium cromoglicate (FIG. 5D).
The cells were subjected to immune staining and the production of pancreatic hormones was confirmed (FIGS. 6A and 6B).

[4] = tested on: Human iPS cell line 201B7; experiment: Differentiation of human iPS cell line 201B7 into insulin producing cells (step 3 with 4 factors), flow cytometry; format: cell-based
Experimental: Human iPS cell line 201B7 (this cell line can be obtained from Center for iPS Cell Research And Application, Kyoto University, Takahashi K et al, Cell. 2007 131:861-72., the contents of this document is incorporated herein by reference) was used. The iPS cells were differentiated into insulin producing cells by using the following steps. The colonies of the iPS cell line were grown to 70% confluent in the culture plate and dissociated from the plate by using CTK solution (Reprocell). The dissociated colonies were then divided into single cells using Accutase™ and seeded in 24 well plates (Greiner) at 2.0×10^5/well. The cells were cultured in RPMI medium containing 2% FBS added with activin A (100 ng/ml) and CHIR99021 (3 μM) for 5 days. During this period, the medium was changed with the same fresh medium on the third and the fourth days. The cells obtained in Step 1 were cultured in improved MEM Zinc Option medium containing 1% B-27 (Invitrogen Corp.) added with dorsomorphin (1 μM), retinoic acid (2 μM), and SB431542 (10 μM) for 6 days. During this period, the medium was changed with the same fresh medium every two days. The cells obtained in Step 2 were cultured in improved MEM Zinc Option medium containing 1% B-27 (Invitrogen Corp.) added with forskolin (10 μM), nicotinamide (10 mM), dexamethasone (10 μM), ALK5 inhibitor II ((2-(3-(6-methylpyridin-2-yl)-1H-pyrazol-4-yl)-1,5-naphthyridine)) (5 μM) and sodium cromoglicate (0.001 mM, 0.01 mM, 0.1 mM, 1 mM, 5 mM, 10 mM or 20 mM) for more 12 days. During this period, the medium was changed with the same fresh medium every four days. The obtained cells analyzed using flow cytometry to determine the number of insulin producing cells in the same manner as Example 1. The addition of 1 mM or more sodium cromoglicate in the culture medium increased the ratio of insulin positive cells and the maximum insulin positive cell-ratio was obtained when 10 mM sodium cromoglicate was added (FIG. 1A). Insulin production was confirmed by immune staining of the cells (FIG. 1B). Further, cells were stained with anti-human C-peptide antibody (Peninsula Laboratories LLC.) and analyzed by flow cytometry to see the production of C-peptide which is obtained by processing of pro-insulin. […] The highest ratio of the insulin positive cells was obtained by 12 days-culture in step 3. […] (FIG. 2B) Cells from cell line 201B7 were subjected to steps 1 and 2 in the same manner as above and cultured for 12 days in step 3. The obtained cells were stained with Ki67 and the ability of the cells to proliferate was evaluated. […] In addition, the obtained cells were treated by using BD Cytofix/Cytoperm™ Kit and stained with monoclonal anti-glucagon clone K79bB10 (SIGMA). The cells were analyzed by flow cytometry to determine the number of the glucagon positive cells.

[5] = tested on: Human iPS cell line 201B7; experiment: Differentiation of 201B7 with sodium cromoglicate used solely or with single additives in step 3; format: cell-based
Experimental: Human iPS cell line 201B7 was used. The cells were differentiated into insulin producing cells by the following steps. The colonies of the iPS cell line was grown to approximately 80-90% confluence in the culture plate and dissociated from the plate by using CTK solution (Reprocell). The dissociated colonies were then divided into single cells using Accutase™ and seeded in 24 well plates (Greiner) at 2.0×10^5/well. The cells were cultured in RPMI medium containing 1% B-27 added with activin A (100 ng/ml), CHIR99021 (1 μM) and Y-27632 (10 μM) for 2 days. Then, the cells were further cultured in RPMI medium containing 1% B-27 added with activin A (100 ng/ml) and CHIR99021 (1 μM) for more 3 days (Day 5). During this period, the medium was changed with the same fresh medium on the third (Day 3) and the fourth days (Day 4). The cells obtained in Step 1 were cultured in improved MEM Zinc Option medium containing 1% B-27 added with dorsomorphin (1 μM), retinoic acid (2 μM), and SB431542 (10 μM) for 6 days (Day 11). During this period, the medium was changed with the same fresh medium every two days. The cells obtained in Step 2 were cultured in improved MEM Zinc Option medium containing 1% B-27 added with sodium cromoglicate (10 mM) for more 8 days (Day 19). During this period, the medium was changed with the same fresh medium every four days. The ratio of insulin expression versus β-Actin expression was determined by using quantitative PCR. […] Then, the effect of sodium cromoglicate when used in combination with each of the four additives used in EXAMPLE 4: forskolin (10 μM), nicotinamide (10 mM), dexamethasone (10 μM), and ALK5 inhibitor II (5 μM) was determined.

[6] = tested on: cell line 201B7; experiment: Ki67 staining, ability of differentiated cells to proliferate; format: cell-based, human; details: 10 mM, 12 days in step 3, FIG. 3
Experimental: Cells from cell line 201B7 were subjected to steps 1 and 2 in the same manner as above and cultured for 12 days in step 3. The obtained cells were stained with Ki67 and the ability of the cells to proliferate was evaluated. […] In addition, the obtained cells were treated by using BD Cytofix/Cytoperm™ Kit and stained with monoclonal anti-glucagon clone K79bB10 (SIGMA). The cells were analyzed by flow cytometry to determine the number of the glucagon positive cells.

[7] = tested on: Human ES cell line KhES3; experiment: Differentiation of human ES cell line KhES3 into insulin producing cells, flow cytometry; format: cell-based; details: step 3 with 4 factors plus 0.001-20 mM sodium cromoglicate, 12 days
Source text: Human ES cell line KhES3 was obtained from Kyoto University and maintained in the manner as shown in H. Suemori et al. (2006), Biochem. Biophys. Res. Commun., 345:926-932, the contents of this document is herein incorporated by reference. The cells of KhES3 were differentiated into insulin producing cells according to the steps shown below. The colonies of the human ES cell line grown to approximately 70% confluent in the culture plate were dissociated from the plate by using CTK solution (Reprocell). The dissociated colonies were then divided into single cells using Accutase™ and seeded in 24 well plates (Greiner) at 2.0×10^5/well. The cells were cultured in RPMI medium containing 2% FBS added with activin A (100 ng/ml) and CHIR99021 (3 μM) for 5 days. During this period, the medium was changed with the same fresh medium on the third and the fourth days. The cells obtained in Step 1 were cultured in improved MEM Zinc Option medium containing 1% B-27 (Invitrogen Corp.) comprising dorsomorphin (1 μM), retinoic acid (2 μM), and SB431542 (10 μM) for 6 days. During this period, the medium was changed with the same fresh medium every two days. […] The obtained cells were treated by using BD Cytofix/Cytoperm™ Kit and then, stained with polyclonal guinea-pig anti Swine insulin antibody/anti-serum (DAKO) and analyzed using flow cytometry to determine the number of insulin producing cells.

[8] = PCR, 10 mM in step 3, 8 days, FIG. 5B
[9] = immune staining, Day 19, FIGS. 6A and 6B

O=C(O)c1cc(=O)c2c(OCC(O)COc3cccc4oc(C(=O)O)cc(=O)c34)cccc2o1 [sodium cromoglicate, sodium salt of 1,3-Bis(2-carboxychromon-5-yloxy)-2-hydroxypropane]
ratio of GFP positive cells ([1]; suspension culture 4 days, E12.5, E14.5, E16.5, FIG. 7B): increased the ratio of GFP positive cells in each embryonic pancreatic anlage
expression of Neurog 3 ([1]; PCR, 4 days, FIG. 7C): increased
expression of insulin ([1]; PCR, 4 days, FIG. 7C): increased
ratio of insulin positive cells [2]: ratio of insulin positive cells were increased
amount of insulin produced by the cells, presence vs absence ([3]; Day 19, 4Fs plus sodium cromoglicate vs 4Fs, FIG. 5D): higher
expression of GHRE (Ghrelin) [3, 8]: confirmed
expression of NGN3 [3, 8]: confirmed
expression of SST (somatostatin), presence vs absence [3, 8]: higher
expression of glucagon [3, 9]: increased
expression of insulin [3, 9]: increased
expression of somatostatin [3, 9]: increased
ratio of insulin positive cells by culture period in step 3 ([4]; 10 mM, 8, 12 and 16 days in step 3, FIG. 2B): increased in the groups cultured for 8 days, 12 days and 16 days
effect on ratio of insulin positive cells, 4 days in step 3 ([4]; 10 mM, 4 days in step 3, FIG. 2B): also confirmed, although the efficiency was low
ratio of insulin positive cells ([4]; 10 mM, 12 days in step 3, FIG. 4): increased the ratio of both insulin positive cells and glucagon positive cells
ratio of glucagon positive cells ([4]; 10 mM, 12 days in step 3, anti-glucagon flow cytometry, FIG. 4): increased the ratio of both insulin positive cells and glucagon positive cells
culture period in step 3 giving the highest ratio of insulin positive cells ([4]; 10 mM, FIG. 2B): 12 days
production of C-peptide ([4]; anti-human C-peptide antibody, flow cytometry, FIG. 1C): increased by addition of sodium cromoglicate in a dose dependent manner
concentration giving the maximum insulin positive cell-ratio ([4]; step 3 12 days, FIG. 1A): 10 mM
concentration in the culture medium that increased the ratio of insulin positive cells ([4]; step 3 12 days, FIG. 1A): ≥ 1 mM
expression of insulin in combination with each single additive ([5]; combined with forskolin (10 μM), nicotinamide (10 mM), dexamethasone (10 μM) or ALK5 inhibitor II (5 μM)): confirmed in all 4 combinations, although the amount of the expression was not so high
effect on the agents' induction of insulin producing cells in combination ([5]; combined with forskolin, nicotinamide, dexamethasone or ALK5 inhibitor II): enhances the effects of all 4 agents
amount of insulin positive cells ([5]; immune staining, 10 mM alone in step 3, 8 days, FIG. 8C): higher
ratio of insulin expression versus β-Actin expression, presence vs absence ([5]; quantitative PCR, 10 mM alone in step 3, 8 days, FIG. 8B): higher
number of Ki67 positive cells, presence vs absence [6]: no substantial difference
ratio of insulin positive cells [7]: increased the ratio of insulin positive cells in a concentration dependent manner
